# According to patent US11498915B2, “TrkA Inhibitor” (Eli Lilly and Company, priority 2020, dated 2022):
# pIC50: −log10 of the molar value.
# Experiments:
# [1] = biological target: T1, hTrkB (Homo sapiens, UniProt Q16620); assay: hTrk kinase TR-FRET assay (headed Binding Assays), hTrkB kinase domain; assay type: biochemical; design: hTrkB, aa: 526-838; settings: hTrkB kinase domain aa 526-838, N = 1, read-out: Relative IC50 hTrkB, Binding Assays
# From the text: (§1) Human Tropomyosin Receptor Kinase (hTrkA, hTrkB, hTrkC) Assays to Examine hTrk Kinase Inhibitors
# (§2) The reaction of non-phosphorylated hTrk kinase domains (hTrkA, aa: 441-796, hTrkB, aa: 526-838 or hTrkC, aa: 510-825) with a fluorescein-labeled poly-GT substrate (poly-GT, Invitrogen) generates a fluorescein-labeled phosphorylated product. Binding of the terbium-labeled antibody (Invitrogen) to the phosphorylated tyrosine product brings the terbium and fluorescein into proximity, resulting in an increase in time-resolved fluorescence resonance energy transfer (TR-FRET). In the presence of an inhibitor, formation of phosphorylated product is reduced, and the TR-FRET value is decreased.
# (§3) Inhibition of hTrk kinase activity: The activity of human tropomyosin receptor hTrk kinase is quantitated using TR-FRET technology (Invitrogen) as per vendor instructions. Briefly, compounds for dose-response studies are serially diluted in dimethyl sulfoxide (1:2 for 20 concentrations) using an acoustic dispensing instrument Echo Access (Labcyte) and dispensed into ProxiPlate-384 plus plates (PerkinElmer). […] EDTA and terbium-labeled antibody are added and plates are incubated at RT for one hour after which the TR-FRET signal is detected using an ENVISION® plate reader (Perkin-Elmer). The ratio of fluorescence at 520 to 495 nm is calculated. […]
# Target sequence in this assay (Q16620 510-822): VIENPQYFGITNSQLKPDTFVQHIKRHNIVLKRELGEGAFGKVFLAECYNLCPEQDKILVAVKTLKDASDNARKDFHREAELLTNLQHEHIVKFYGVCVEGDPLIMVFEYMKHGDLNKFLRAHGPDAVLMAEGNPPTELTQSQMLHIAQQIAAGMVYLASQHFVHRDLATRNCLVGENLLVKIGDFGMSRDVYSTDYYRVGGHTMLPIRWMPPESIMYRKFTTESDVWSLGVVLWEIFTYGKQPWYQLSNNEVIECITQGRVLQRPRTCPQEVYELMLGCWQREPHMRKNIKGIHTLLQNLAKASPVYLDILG
# [2] = biological target: T2, hTrkC (Homo sapiens, UniProt Q16288); assay: PathHunter cell-based assay, inhibition of SH2 domain protein recruitment, hTrkC-p75 U2OS cells; design: host or cells: U2OS (human bone osteosarcoma epithelial cells), PathHunter hTrkC-p75
# From the text: (§4) In Vitro Inhibition of SH2 Domain Protein Recruitment in Human Bone Osteosarcoma Epithelial Cells by Human Tropomyosin Receptor Kinase (hTrk) Inhibitors
# (§5) Activation of hTrkA, TrkB or TrkC is examined using PathHunter® (DiscoverX) enzyme fragment complementation technology. In this approach, one fragment of β-galactosidase (β-gal) ProLink (PK) is fused to the C-terminal of the Trk receptor and co-expressed with a phosphotyrosine SH2 domain protein fused with the remaining fragment of β-gal, Enzyme Acceptor (EA), in human Bone Osteosarcoma Epithelial (hU2OS) cells also expressing the p75 neurotrophic receptor (DiscoverX). Activation of hTrk receptors by agonists results in receptor phosphorylation. The SH2-EA fusion protein binds the phosphorylated hTrk receptor resulting in complementation of PK and EA to form an active β-gal enzyme. β-gal enzymatic activity is quantitatively measured using a chemiluminescent substrate in the PathHunter® detection kit (DiscoverX). […]
# (§6) Inhibition of hTrk kinase activity: The activity of hTrkA and hTrkC kinase is quantitated using Pathhunter® technology (DiscoverX) as per vendor instructions.
# (§7) Briefly, on the assay day, compounds for dose-response studies are serially diluted in dimethyl sulfoxide (1:3 for 10 concentrations) using an acoustic dispensing instrument Echo Access (Labcyte) and dispensed into cell plates that are subsequently incubated at room temperature (RT) for one hour. […] Pathhunter® detection reagents (DiscoverX) are added and plates are read in an ENVISION® plate reader (Perkin-Elmer) at 700 nm after 1 h incubation at RT in the dark. […]
# (§8) Data Analysis: The data are converted into % Inhibition and relative IC50 values are calculated from the top-bottom range of the concentration response curve using a four-parameter logistic curve fitting program (GENEDATA SCREENER® v13.0.5) with the equation Y=Bottom+(Top-Bottom)/(1+10^((Log IC50−X)*HillSlope)). […]
# Target sequence in this assay (Q16288 32-839): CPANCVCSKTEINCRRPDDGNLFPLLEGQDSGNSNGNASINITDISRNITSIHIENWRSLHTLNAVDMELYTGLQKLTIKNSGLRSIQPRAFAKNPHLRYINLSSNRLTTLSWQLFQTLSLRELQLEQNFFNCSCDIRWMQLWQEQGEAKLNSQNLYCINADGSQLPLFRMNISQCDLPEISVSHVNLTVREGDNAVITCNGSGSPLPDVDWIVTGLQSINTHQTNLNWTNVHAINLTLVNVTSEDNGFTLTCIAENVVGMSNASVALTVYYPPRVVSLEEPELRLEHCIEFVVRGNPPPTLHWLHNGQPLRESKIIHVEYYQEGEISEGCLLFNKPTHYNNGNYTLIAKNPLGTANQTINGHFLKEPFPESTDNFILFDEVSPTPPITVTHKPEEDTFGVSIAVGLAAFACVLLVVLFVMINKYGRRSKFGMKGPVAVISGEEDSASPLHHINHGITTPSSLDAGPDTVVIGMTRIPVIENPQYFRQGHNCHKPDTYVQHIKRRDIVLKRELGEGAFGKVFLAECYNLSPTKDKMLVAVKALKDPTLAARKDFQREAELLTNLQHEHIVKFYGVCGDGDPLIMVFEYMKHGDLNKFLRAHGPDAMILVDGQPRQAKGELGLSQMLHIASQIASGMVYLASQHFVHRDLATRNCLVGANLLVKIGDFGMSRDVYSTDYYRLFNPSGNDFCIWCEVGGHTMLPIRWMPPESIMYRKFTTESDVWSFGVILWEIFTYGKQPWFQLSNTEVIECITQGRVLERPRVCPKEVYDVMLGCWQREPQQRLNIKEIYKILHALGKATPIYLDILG
# [3] = biological target: T3, hTrkA (Homo sapiens, UniProt P04629); assay: hTrk kinase TR-FRET assay (headed Binding Assays), hTrkA kinase domain; assay type: biochemical; design: hTrkA, aa: 441-796; settings: hTrkA kinase domain aa 441-796, N = 4, read-out: Relative IC50 hTrkA, Binding Assays
# From the text: as §1, §2, §3
# Target sequence in this assay (P04629 441-796): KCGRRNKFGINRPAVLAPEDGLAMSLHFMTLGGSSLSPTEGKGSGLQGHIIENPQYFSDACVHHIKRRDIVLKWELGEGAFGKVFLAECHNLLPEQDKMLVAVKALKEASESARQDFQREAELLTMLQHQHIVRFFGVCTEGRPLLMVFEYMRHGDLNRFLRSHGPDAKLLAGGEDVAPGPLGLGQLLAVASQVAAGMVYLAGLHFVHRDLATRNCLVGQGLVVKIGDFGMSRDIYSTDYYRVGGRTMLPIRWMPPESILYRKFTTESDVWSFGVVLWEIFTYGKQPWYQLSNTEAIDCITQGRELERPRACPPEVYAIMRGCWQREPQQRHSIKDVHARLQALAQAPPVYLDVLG
# [4] = biological target: T2, hTrkC; assay: hTrk kinase TR-FRET assay (headed Binding Assays), hTrkC kinase domain; assay type: biochemical; design: hTrkC, aa: 510-825; settings: hTrkC kinase domain aa 510-825, N = 1, read-out: Relative IC50 hTrkC, Binding Assays
# From the text: as §1, §2, §3
# Target sequence in this assay (Q16288 510-825 isoform Q16288-3): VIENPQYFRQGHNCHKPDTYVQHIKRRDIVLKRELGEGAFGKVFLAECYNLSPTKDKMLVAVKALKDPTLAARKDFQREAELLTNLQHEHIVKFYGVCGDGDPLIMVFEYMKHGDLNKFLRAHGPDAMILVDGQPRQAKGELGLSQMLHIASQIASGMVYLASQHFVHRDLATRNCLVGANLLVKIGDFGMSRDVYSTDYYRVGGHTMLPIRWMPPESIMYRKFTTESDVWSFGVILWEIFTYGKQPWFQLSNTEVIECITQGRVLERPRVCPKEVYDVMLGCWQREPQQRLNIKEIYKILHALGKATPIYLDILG
# [5] = biological target: T3, hTrkA; assay: PathHunter cell-based assay, inhibition of SH2 domain protein recruitment, hTrkA-p75 U2OS cells; design: host or cells: U2OS (human bone osteosarcoma epithelial cells), PathHunter hTrkA-p75
# From the text: as §4, §5, §6, §7, §8
# Target sequence in this assay (P04629 33-796): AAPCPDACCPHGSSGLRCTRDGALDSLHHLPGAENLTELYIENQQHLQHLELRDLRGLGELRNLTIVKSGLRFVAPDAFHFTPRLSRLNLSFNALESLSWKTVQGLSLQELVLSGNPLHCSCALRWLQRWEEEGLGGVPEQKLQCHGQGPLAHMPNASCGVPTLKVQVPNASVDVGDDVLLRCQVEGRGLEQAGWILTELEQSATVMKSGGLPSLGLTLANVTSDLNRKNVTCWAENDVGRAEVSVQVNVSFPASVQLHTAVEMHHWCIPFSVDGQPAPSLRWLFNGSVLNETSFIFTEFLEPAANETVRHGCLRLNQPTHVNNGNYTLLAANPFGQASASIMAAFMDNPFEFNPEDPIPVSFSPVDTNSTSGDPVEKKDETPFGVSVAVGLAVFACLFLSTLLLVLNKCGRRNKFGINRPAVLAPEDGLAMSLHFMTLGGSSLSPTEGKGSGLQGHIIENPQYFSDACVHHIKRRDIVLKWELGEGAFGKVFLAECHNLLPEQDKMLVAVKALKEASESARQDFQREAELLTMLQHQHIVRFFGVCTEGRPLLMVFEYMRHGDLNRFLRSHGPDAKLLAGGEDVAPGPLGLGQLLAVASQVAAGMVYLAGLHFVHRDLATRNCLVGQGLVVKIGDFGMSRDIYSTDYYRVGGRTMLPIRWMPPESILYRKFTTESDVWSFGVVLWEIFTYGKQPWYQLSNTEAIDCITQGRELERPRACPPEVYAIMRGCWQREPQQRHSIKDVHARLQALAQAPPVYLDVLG
# [6] = biological target: T1, hTrkB; assay: PathHunter cell-based assay, inhibition of SH2 domain protein recruitment, hTrkB-p75 U2OS cells; design: host or cells: U2OS (human bone osteosarcoma epithelial cells), PathHunter hTrkB-p75
# From the text: as §4, §5, §6, §7, §8
# Target sequence in this assay (Q16620 32-822): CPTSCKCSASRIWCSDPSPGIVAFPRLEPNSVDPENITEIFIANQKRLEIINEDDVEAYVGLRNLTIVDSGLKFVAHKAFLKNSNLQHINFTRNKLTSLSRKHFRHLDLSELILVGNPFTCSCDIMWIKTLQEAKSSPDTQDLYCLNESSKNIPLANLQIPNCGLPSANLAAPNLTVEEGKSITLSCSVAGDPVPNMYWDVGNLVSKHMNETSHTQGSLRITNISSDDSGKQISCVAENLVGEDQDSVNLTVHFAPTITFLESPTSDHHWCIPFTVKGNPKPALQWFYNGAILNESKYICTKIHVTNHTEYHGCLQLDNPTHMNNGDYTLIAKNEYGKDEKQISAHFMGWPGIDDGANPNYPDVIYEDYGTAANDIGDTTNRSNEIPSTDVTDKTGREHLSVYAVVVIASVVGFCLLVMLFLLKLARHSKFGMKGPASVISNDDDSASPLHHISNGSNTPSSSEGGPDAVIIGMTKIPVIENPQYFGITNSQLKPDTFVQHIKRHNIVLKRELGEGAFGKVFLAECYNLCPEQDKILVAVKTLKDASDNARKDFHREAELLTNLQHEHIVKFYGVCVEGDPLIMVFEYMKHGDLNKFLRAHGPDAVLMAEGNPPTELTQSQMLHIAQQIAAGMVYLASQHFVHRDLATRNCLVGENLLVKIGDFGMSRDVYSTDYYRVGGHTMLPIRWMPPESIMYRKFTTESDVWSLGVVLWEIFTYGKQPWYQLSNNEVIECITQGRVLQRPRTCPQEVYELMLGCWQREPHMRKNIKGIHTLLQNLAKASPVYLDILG
# [7] = biological target: Trk A (Homo sapiens, UniProt P04629); assay: Trk A IC50 values listed in Table 2 of U.S. Pat. No. 9,815,846; settings: 14 divided by 0.069; phenyl ring versus pyridine ring
# [8] = Table 2 comparative data, Example 1 values are the PathHunter values of Table 1, read-out: hTrkC IC50
# [9] = Table 2 comparative data, Example 1 values are the PathHunter values of Table 1, read-out: hTrkA IC50
# [10] = Table 2 comparative data, Example 1 values are the PathHunter values of Table 1, read-out: hTrkB IC50
# Sequence of Trk A (P04629 33-796, species assumed): as the sequence (P04629 33-796) above
smiles,measurement,setting,value
"Cn1ccc(-c2cc(C(=O)Nc3cncc(C(N)=O)c3-c3ccccn3)c(F)cc2C(F)(F)F)n1 [Example 1, 5-[[2-fluoro-5-(1-methylpyrazol-3-yl)-4-(trifluoromethyl)benzoyl]amino]-4-(2-pyridyl)pyridine-3-carboxamide]",pIC50,[1],< 5.37
same,pIC50,"[2]; hU2OS hTrkC-p75 cells, hNT-3 29 ng/ml, N = 24, read-out: Relative IC50 hTrkC, PathHunter cell-based assay",5.05
same,pIC50,[3],8.96
same,pIC50,[4],5.08
same,pIC50,"[5]; hU2OS hTrkA-p75 cells, hNGF 27 ng/ml, N = 32, read-out: Relative IC50 hTrkA, PathHunter cell-based assay",8.91
same,pIC50,"[6]; hU2OS hTrkB-p75 cells, hBDNF 20 ng/ml, N = 25, read-out: Relative IC50 hTrkB, PathHunter cell-based assay",5.17
Cn1ccc(-c2cc(C(=O)Nc3cc(C(N)=O)cnc3-c3ccccc3)ccc2C(F)(F)F)n1 [Example 89 of US Patent No. 9815846],pIC50,[2]; [8],6.34
same,pIC50,[5]; [9],8.81
same,pIC50,[6]; [10],6.15
Cn1ccc(-c2cc(C(=O)Nc3cc4c(nc3-c3ccccn3)CCNC4=O)c(F)cc2C(F)(F)F)n1 [Example 141 of US Patent No. 9815846],pIC50,[2]; [8],4.42
same,pIC50,[5]; [9],7.95
same,pIC50,[6]; [10],< 4.32
Cn1ccc(-c2cc(C(=O)Nc3cc4c(nc3-c3ccccc3)CCNC4=O)c(F)cc2C(F)(F)F)n1 [Example 152],"effect on the potency at TrkA, Example 141 IC50 divided by Example 152 IC50",[7],202.9 fold
